# Experimental data from article PMC9296036, “A peptide interfering with the dimerization of oncogenic KITENIN protein and its stability suppresses colorectal tumour progression” (Clinical and Translational Medicine, 2022).
# Ends that are not written are not given here.
# System: Caco2/KITENIN cells
# Assay: Transwell cell invasion assay, Caco2/KITENIN cells
# Assay type: cell-based
# Details: Caco2 cells transfected with KITENIN-V5, KDIP versus scrambled peptide
# Description: Cell invasion was measured using the transwell migration apparatus as described.[18] Briefly, cultured cells were seeded into the top of a 24‐well invasion chamber assay plate (Costar). Conditioned DMEM medium containing 10 μg/ml of fibronectin (Calbiochem) and 1% FBS was added to the bottom chamber as a chemoattractant. After 16 h (Caco2) or 48 h (HCT116) of incubation, the cells were stained. Cells at the top surface of the filters were wiped off with a cotton ball, and migrated cells on the bottom surface were counted in four random squares of .5 mm × .5 mm on each filter. The results are shown as the mean ± SEM of the number of cells per field for at least three independent experiments.
# Effect of KAI1 C‐terminal interacting tetraspanin (KITENIN) dimerization‐interfering peptide (KDIP) on tumour growth and metastasis in in vivo mouse model of colorectal cancer (CRC). […] For the evaluation of metastasis, total fluorescence emitted from liver nodules expressing iRFP was measured and counted (left panel) or metastatic tumour growth was counted as nodules that migrated to the surface of the liver, and a metastatic score was obtained by multiplying it with size (middle panel). Metastatic score or total fluorescence is represented as mean ± SEM. […] The quantitative amount of each protein was measured by densitometry and is represented as an arbitrary score (mean ± SEM, n = 6). […]
sequence,measurement,value
YARVRRRGPRRWRLVSDEAV [KDIP],cellular invasion by overexpressed KITENIN (in words),reduced
